How the values were obtained:
[1] = Safety and pharmacokinetic study of different GTN concentrations compared with sub-lingual Nitrostat; type: in vivo, human
[2] = system: mitochondrial and cytosolic aldehyde dehydrogenase; details: in vitro; cited from earlier work

In the case of `O=[N+]([O-])OCC(CO[N+](=O)[O-])O[N+](=O)[O-]` [GTN, Glyceryl trinitrate], the “plasma concentration versus dosage level” value ([1]; in vivo) is reported as “increased proportionally with increasing dosage level”, the Tmax ([1]; male, human, in vivo, topical or ocular, pharmacokinetic modelling, topical gel, read-out: Tmax of initial zero order entry into systemic circulation) is reported as 10 to 12 min and the “first appearance of GTN after application (lag time)” value ([1]; pharmacokinetic modelling, topical gel) is reported as “around 4 minutes”. The “time of peak rate of formation of nitric oxide from GTN” value [2] was “approximately 100 seconds”.

From patent publication US20210000757A1, “TOPICAL COMPOSITION” (Futura Medical Developments Limited, priority 2017, published 2021)
